The values that follow come from article PMC8310277 (Viruses, 2021).

For assay [1], the system named is pseudotyped virus expressing SARS-CoV-2 S protein from the P.1 variant. The assay is classed as cell-based.
The test system of assay [2] is pseudotyped virus expressing SARS-CoV-2 S protein from the B.1.1.7 variant. The assay is classed as cell-based.

Where a SMILES comes first, the peptide text is derived from it. Bridges are numbered along the chain shown (N, C = ends).

For the compound `CC[C@H](C)[C@@H]1NC(=O)[C@H](CCC(=O)O)NC(=O)[C@@H]2CSSC[C@@H]3NC(=O)[C@H](Cc4ccc(O)cc4)NC(=O)[C@@H](NC(=O)[C@@H](NC(=O)[C@H](C)N)[C@@H](C)O)CSSC[C@@H](C(=O)N[C@@H](CCCNC(=N)N)C(=O)O)NC(=O)[C@H](CSSC[C@H](NC(=O)[C@H](CCCNC(=N)N)NC(=O)CNC(=O)[C@H]([C@@H](C)O)NC(=O)[C@H](CCCNC(=N)N)NC3=O)C(=O)N[C@@H](C)C(=O)N[C@@H]([C@@H](C)O)C(=O)N[C@@H](CCCNC(=N)N)C(=O)N[C@@H](CCC(=O)O)C(=O)N[C@@H](CO)C(=O)N[C@@H](CC(C)C)C(=O)N[C@@H](CO)C(=O)NCC(=O)N[C@@H](C(C)C)C(=O)N2)NC(=O)[C@H](CC(C)C)NC(=O)[C@H](CCCNC(=N)N)NC(=O)[C@H](Cc2ccc(O)cc2)NC(=O)[C@H](CC(C)C)NC(=O)[C@H](CCCNC(=N)N)NC(=O)CNC(=O)[C@H](CO)NC1=O` [HD5] (H-ATCYCRTGRCATRESLSGVCEISGRLYRLCCR-OH; disulfide 3-31, 5-20, 10-30 (inferred); N-terminus and C-terminus assumed), the “effect on P.1 variant (in words)” value in assay [1] was “suppressed the P.1 variant in a dose-dependent manner”. For the same compound, the “suppression of P1 infection” value in assay [1] (50 μg/mL) is 72%. Further, the “effect on B.1.1.7 variant (in words)” value in assay [2] is on record as “moderate antiviral activity”. The “inhibition of B.1.1.7 infection” value in assay [2] (50 μg/mL) is 32%.
